Source: BindingDB's records for PubMed 1464308 (Cnrs, 1992)
pKi: −log10 of the molar value.

What follows are compounds tested against 5-hydroxytryptamine receptor 5A (Mus musculus, UniProt P30966).
Sequence of 5-hydroxytryptamine receptor 5A (P30966 whole entry): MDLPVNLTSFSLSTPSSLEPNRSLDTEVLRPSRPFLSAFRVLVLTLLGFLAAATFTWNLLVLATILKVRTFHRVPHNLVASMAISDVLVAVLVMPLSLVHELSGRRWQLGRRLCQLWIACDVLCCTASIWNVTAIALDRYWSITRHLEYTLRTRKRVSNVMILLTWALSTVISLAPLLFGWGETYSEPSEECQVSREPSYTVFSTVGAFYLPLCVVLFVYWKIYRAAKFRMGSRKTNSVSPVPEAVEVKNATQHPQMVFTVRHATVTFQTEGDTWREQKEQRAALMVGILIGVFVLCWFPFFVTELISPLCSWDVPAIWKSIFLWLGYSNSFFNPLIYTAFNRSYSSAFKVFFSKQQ

Row | SMILES | pKi
1 | CCCN(CCC)C1CCc2cccc(O)c2C1 (centres undefined) | 5.90
2 | CC[C@@H](CO)NC(=O)[C@@H]1C=C2c3cccc4c3c(cn4C)C[C@H]2N(C)C1 | 7.20
3 | NCCc1ccc(O)c(O)c1 | < 5.00
4 | O=C(c1ccc(F)cc1)C1CCN(CCn2c(=O)[nH]c3ccccc3c2=O)CC1 [3-(2-{4-[(4-fluorophenyl)carbonyl]piperidin-1-yl}ethyl)-1,2,3,4-tetrahydroquinazoline-2,4-dione] | < 5.00
5 | CN(C)CCc1c[nH]c2ccc(O)cc12 [3-[2-(dimethylamino)ethyl]indol-5-ol] | 6.00
6 | COc1ccc2[nH]cc(C3=CCNCC3)c2c1 [5-Methoxy-3-(1,2,3,6-tetrahydro-pyridin-4-yl)-1H-indole(RU-24969)] | 6.50
7 | O=C(CCCN1CCC2(CC1)C(=O)NCN2c1ccccc1)c1ccc(F)cc1 [8-[4-(4-fluorophenyl)-4-oxidanylidene-butyl]-1-phenyl-1,3,8-triazaspiro[4.5]decan-4-one] | 5.60
8 | CN1C[C@H](C(=O)N[C@]2(C)O[C@@]3(O)[C@@H]4CCCN4C(=O)[C@H](Cc4ccccc4)N3C2=O)C=C2c3cccc4[nH]cc(c34)C[C@H]21 [12'-hydroxy-2'-methyl-5'alpha-(phenylmethyl)ergotaman-3',6',18-trione] | 8.40
9 | CC(C)NCC(O)COc1cccc2[nH]ccc12 (centres undefined) [LB-46] | < 5.00
10 | CCN(CC)C(=O)[C@@H]1C=C2c3cccc4[nH]c(Br)c(c34)C[C@H]2N(C)C1 [LSD,2-Bromo] | 8.70
11 | NCC(O)c1ccc(O)c(O)c1 (stereo not drawn) [Noradrenaline,(+)] | < 5.00
12 | CNS(=O)(=O)Cc1ccc2[nH]cc(CCN(C)C)c2c1 [Sumax] | < 5.00
13 | FC(F)(F)c1cccc(N2CCNCC2)c1 [TFMPP] | 5.60
14 | CSc1ccc2c(c1)C(N1CCN(C)CC1)Cc1ccccc1S2 (centres undefined) [methanesulfonic acid;1-methyl-4-(3-methylsulfanyl-5,6-dihydrobenzo[b][1]benzothiepin-5-yl)piperazine] | 7.00
